Source: ChEMBL document CHEMBL4145470, “Efficient synthesis and first regioselective C-6 direct arylation of imidazo[2,1-c][1,2,4]triazine scaffold and their evaluation in H2O2-induced oxidative stress” (Eur J Med Chem, 2018)
Active and inactive are the calls of the source. No cut-off for these calls is given here.

How the values were obtained:
[1] = test system: SH-SY5Y; assay: Cytotoxicity against human SH-SY5Y cells at 1 to 10 uM after 24 hrs by MTT assay; assay type: cell-based
[2] = test system: SH-SY5Y; assay: Cytoprotective activity against H2O2-induced oxidative stress in human SH-SY5Y cells assessed as increase in cell viability preincubated for 24 hrs followed by H2O2 addition and measured after 1 hr by MTT assay; assay type: functional, cell-based
[3] = test system: SH-SY5Y; assay: Cytoprotective activity against H2O2-induced apoptosis in human SH-SY5Y cells assessed as increase in Bcl-2 levels at 0.1 uM preincubated for 24 hrs followed by H2O2 addition measured after 1 hr by Western blot analysis; assay type: functional, cell-based
[4] = target: RAC-alpha serine/threonine-protein kinase (Homo sapiens) (UniProt P31749); assay: Induction of Akt phosphorylation in H2O2-treated human SH-SY5Y cells at 0.1 uM by ELISA; assay type: cell-based
[5] = test system: SH-SY5Y; assay: Cytoprotective activity against H2O2-induced oxidative stress in human SH-SY5Y cells assessed as cell viability at 1 uM preincubated for 24 hrs followed by H2O2 addition and measured after 1 hr by MTT assay (reference value: 37.88 +/- 8.52%); assay type: functional; settings: read-out: Activity
[6] = test system: SH-SY5Y; assay: Cytoprotective activity against H2O2-induced apoptosis in human SH-SY5Y cells assessed as decrease in Bax levels at 0.1 uM preincubated for 24 hrs followed by H2O2 addition measured after 1 hr by Western blot analysis; assay type: functional, cell-based
[7] = test system: SH-SY5Y; assay: Cytoprotective activity against H2O2-induced oxidative stress in human SH-SY5Y cells assessed as cell viability at 10 uM preincubated for 24 hrs followed by H2O2 addition and measured after 1 hr by MTT assay (reference value: 37.88 +/- 8.52%); assay type: functional; settings: read-out: Activity
[8] = target: Eukaryotic translation initiation factor 2 subunit 1 (Homo sapiens) (UniProt P05198); assay: Inhibition of H2O2-induced eIF2alpha phosphorylation in human SH-SY5Y cells at 0.1 uM; assay type: cell-based
[9] = test system: SH-SY5Y; assay: Cytoprotective activity against H2O2-induced oxidative stress in human SH-SY5Y cells assessed as cell viability at 0.1 uM preincubated for 24 hrs followed by H2O2 addition and measured after 1 hr by MTT assay (reference value: 37.88 +/- 8.52%); assay type: functional; settings: read-out: Activity
[10] = test system: SH-SY5Y; assay: Cytoprotective activity against H2O2-induced apoptosis in human SH-SY5Y cells assessed as increase in Bcl-2/Bax ratio at 0.1 uM preincubated for 24 hrs followed by H2O2 addition measured after 1 hr by Western blot analysis; assay type: functional, cell-based
[11] = target: RAC-alpha serine/threonine-protein kinase (Homo sapiens) (UniProt P31749); assay: Induction of Akt phosphorylation in H2O2-treated human SH-SY5Y cells assessed as increase in pBad levels at 0.1 uM by ELISA; assay type: cell-based
[12] = target: T1, Mitogen-activated protein kinase; ERK1/ERK2 (Homo sapiens) (UniProt P27361+P28482); assay: Inhibition of H2O2-induced p44/42 MAPK phosphorylation in human SH-SY5Y cells at 0.1 uM; assay type: cell-based
[13] = test system: SH-SY5Y; assay: Cytoprotective activity against H2O2-induced apoptosis in human SH-SY5Y cells assessed as relative cleaved caspase-3 levels at 0.1 uM (reference value: 0.875 +/- 0.035); assay type: functional
[14] = test system: SH-SY5Y; assay: Cytoprotective activity against H2O2-induced apoptosis in human SH-SY5Y cells assessed as relative cleaved PARP levels at 0.1 uM (reference value: 0.725 +/- 0.06); assay type: functional
[15] = test system: SH-SY5Y; assay: Cytoprotective activity against H2O2-induced apoptosis in human SH-SY5Y cells assessed as relative cleaved caspase-7 levels at 0.1 uM (reference value: 1.025 +/- 0.120); assay type: functional
[16] = target: T2, MAP kinase p38 (Homo sapiens) (UniProt O15264+Q15759+Q16539+P53778); assay: Inhibition of H2O2-induced p38 MAPK phosphorylation in human SH-SY5Y cells at 0.1 uM; assay type: cell-based
[17] = test system: SH-SY5Y; assay: Cytoprotective activity against H2O2-induced apoptosis in human SH-SY5Y cells assessed as relative Bcl-2 levels at 10 uM preincubated for 24 hrs followed by H2O2 addition measured after 1 hr by Western blot analysis (reference value: 2.084 +/- 0.078); assay type: functional
[18] = test system: SH-SY5Y; assay: Cytoprotective activity against H2O2-induced apoptosis in human SH-SY5Y cells assessed as increase in Bcl-2/Bax ratio at 10 uM preincubated for 24 hrs followed by H2O2 addition measured after 1 hr by Western blot analysis; assay type: functional, cell-based
[19] = target: Eukaryotic translation initiation factor 2 subunit 1 (Homo sapiens) (UniProt P05198); assay: Inhibition of H2O2-induced eIF2alpha phosphorylation in human SH-SY5Y cells at 1 uM; assay type: cell-based
[20] = target: T1, Mitogen-activated protein kinase; ERK1/ERK2 (Homo sapiens); assay: Inhibition of H2O2-induced p44/42 MAPK phosphorylation in human SH-SY5Y cells at 10 uM; assay type: cell-based
[21] = test system: SH-SY5Y; assay: Cytoprotective activity against H2O2-induced apoptosis in human SH-SY5Y cells assessed as increase in Bcl-2/Bax ratio at 1 uM preincubated for 24 hrs followed by H2O2 addition measured after 1 hr by Western blot analysis; assay type: functional, cell-based
[22] = test system: SH-SY5Y; assay: Cytoprotective activity against H2O2-induced apoptosis in human SH-SY5Y cells assessed as decrease in Bax levels at 1 uM preincubated for 24 hrs followed by H2O2 addition measured after 1 hr by Western blot analysis; assay type: functional, cell-based
[23] = test system: SH-SY5Y; assay: Cytoprotective activity against H2O2-induced apoptosis in human SH-SY5Y cells assessed as relative Bcl-2 levels at 1 uM preincubated for 24 hrs followed by H2O2 addition measured after 1 hr by Western blot analysis (reference value: 2.084 +/- 0.078); assay type: functional
[24] = target: T1, Mitogen-activated protein kinase; ERK1/ERK2 (Homo sapiens); assay: Inhibition of H2O2-induced p44/42 MAPK phosphorylation in human SH-SY5Y cells at 1 uM; assay type: cell-based
[25] = Cytoprotective activity against H2O2-induced apoptosis in human SH-SY5Y cells assessed as relative cleaved caspase-7 levels at 1 uM (reference value: 1.025 +/- 0.120)
[26] = test system: SH-SY5Y; assay: Cytoprotective activity against H2O2-induced apoptosis in human SH-SY5Y cells assessed as relative Bcl-2 levels at 0.1 uM preincubated for 24 hrs followed by H2O2 addition measured after 1 hr by Western blot analysis (reference value: 2.084 +/- 0.078); assay type: functional
[27] = test system: SH-SY5Y; assay: Cytoprotective activity against H2O2-induced apoptosis in human SH-SY5Y cells assessed as relative cleaved caspase-3 levels at 1 uM (reference value: 0.875 +/- 0.035); assay type: functional
[28] = target: RAC-alpha serine/threonine-protein kinase (Homo sapiens) (UniProt P31749); assay: Induction of Akt phosphorylation in H2O2-treated human SH-SY5Y cells at 1 uM by ELISA; assay type: cell-based
[29] = target: T2, MAP kinase p38 (Homo sapiens); assay: Inhibition of H2O2-induced p38 MAPK phosphorylation in human SH-SY5Y cells at 1 uM; assay type: cell-based
[30] = target: RAC-alpha serine/threonine-protein kinase (Homo sapiens) (UniProt P31749); assay: Induction of Akt phosphorylation in H2O2-treated human SH-SY5Y cells assessed as increase in pBad levels at 1 uM by ELISA; assay type: cell-based
[31] = test system: SH-SY5Y; assay: Cytoprotective activity against H2O2-induced apoptosis in human SH-SY5Y cells assessed as relative cleaved PARP levels at 1 uM (reference value: 0.725 +/- 0.06); assay type: functional

Chain of RAC-alpha serine/threonine-protein kinase (Homo sapiens) (P31749 whole entry): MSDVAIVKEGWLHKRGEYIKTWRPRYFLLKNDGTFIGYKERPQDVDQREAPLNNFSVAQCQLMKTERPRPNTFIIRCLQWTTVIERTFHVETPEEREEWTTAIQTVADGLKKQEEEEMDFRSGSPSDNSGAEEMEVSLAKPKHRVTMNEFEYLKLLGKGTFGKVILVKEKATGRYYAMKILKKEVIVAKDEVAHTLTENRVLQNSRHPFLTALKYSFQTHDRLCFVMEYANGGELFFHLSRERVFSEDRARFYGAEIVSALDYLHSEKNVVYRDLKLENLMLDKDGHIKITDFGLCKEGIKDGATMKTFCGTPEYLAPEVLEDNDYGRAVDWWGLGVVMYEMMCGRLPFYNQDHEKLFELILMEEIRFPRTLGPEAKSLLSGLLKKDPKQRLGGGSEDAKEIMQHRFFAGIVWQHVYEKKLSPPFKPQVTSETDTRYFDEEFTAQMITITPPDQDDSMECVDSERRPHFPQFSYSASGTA
T1 sequence (P27361 whole entry, looked up): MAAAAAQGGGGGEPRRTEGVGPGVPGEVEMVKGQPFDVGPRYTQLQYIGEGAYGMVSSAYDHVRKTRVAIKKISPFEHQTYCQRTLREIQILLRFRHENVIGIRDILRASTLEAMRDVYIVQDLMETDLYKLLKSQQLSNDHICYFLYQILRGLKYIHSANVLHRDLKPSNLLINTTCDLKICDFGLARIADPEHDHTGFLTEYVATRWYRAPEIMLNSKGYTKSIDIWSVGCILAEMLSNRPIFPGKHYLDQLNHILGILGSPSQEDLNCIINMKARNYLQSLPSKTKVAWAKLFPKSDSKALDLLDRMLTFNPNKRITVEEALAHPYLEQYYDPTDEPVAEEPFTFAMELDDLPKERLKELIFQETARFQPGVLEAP
T1 sequence (P28482 whole entry, looked up): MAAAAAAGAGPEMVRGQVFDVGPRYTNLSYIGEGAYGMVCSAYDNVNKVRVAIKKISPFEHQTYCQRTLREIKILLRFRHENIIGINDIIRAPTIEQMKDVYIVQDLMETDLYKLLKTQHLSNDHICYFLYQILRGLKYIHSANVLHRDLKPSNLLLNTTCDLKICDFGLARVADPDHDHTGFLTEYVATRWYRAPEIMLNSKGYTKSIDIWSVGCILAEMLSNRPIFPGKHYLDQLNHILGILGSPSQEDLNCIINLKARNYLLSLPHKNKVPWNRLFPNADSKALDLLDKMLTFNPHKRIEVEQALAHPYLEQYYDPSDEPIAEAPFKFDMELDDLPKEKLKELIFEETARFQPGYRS
Chain of Eukaryotic translation initiation factor 2 subunit 1 (Homo sapiens) (P05198 whole entry): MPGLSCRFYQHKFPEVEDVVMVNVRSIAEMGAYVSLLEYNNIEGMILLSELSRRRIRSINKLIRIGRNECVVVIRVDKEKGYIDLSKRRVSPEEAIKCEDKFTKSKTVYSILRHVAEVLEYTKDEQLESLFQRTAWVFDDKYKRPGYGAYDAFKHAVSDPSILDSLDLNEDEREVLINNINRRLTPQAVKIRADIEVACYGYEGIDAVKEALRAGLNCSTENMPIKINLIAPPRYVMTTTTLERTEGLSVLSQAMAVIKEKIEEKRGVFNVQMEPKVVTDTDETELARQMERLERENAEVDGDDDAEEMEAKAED

SMILES	Activity [1]	Activity [2]	Activity [4]	viability at 1 µM [5] [%]	Activity [6]	viability at 10 µM [7] [%]	inhibition [8]	viability at 0.1 µM [9] [%]	Activity [11]	further results
COc1ccc(-c2nc3nnccn3c2-c2ccccc2)cc1	Non-Toxic	Dose-dependent effect	Active	50.6	Active	79.7	inactive	72.9	Active	Activity [3]: Active; Activity [10]: Active
O=[N+]([O-])c1cccc(-c2cn3ccnnc3n2)c1	Non-Toxic	Dose-dependent effect		58.9		65.7		61.5		
COc1ccc(-c2cn3ccnnc3n2)cc1	Non-Toxic	Dose-dependent effect		71.3	Active	60.9	inactive	73.9		inhibition [12]: Active; fold change (FC) [13]: 0.705; fold change (FC) [14]: 0.62
COc1ccc(-c2nc3nnccn3c2-c2ccncc2)cc1	Non-Toxic	Dose-dependent effect		55.7		61.5		64.1		
COc1ccccc1-c1cn2ccnnc2n1	Non-Toxic	Dose-dependent effect	Active	60.5	Active	51.1	inactive	62.7	Active	Activity [3]: Active
COc1cccc(-c2cn3ccnnc3n2)c1	Non-Toxic	Dose-dependent effect		62.8	Active	65	inactive	73.8		inhibition [12]: Active; fold change (FC) [15]: 0.815; fold change (FC) [13]: 0.595; fold change (FC) [14]: 0.48; inhibition [16]: Active
COc1ccc(-c2nc3nnccn3c2-c2ccc([N+](=O)[O-])cc2)cc1	Non-Toxic	Dose-dependent effect	inactive	56	Active	74.9	inactive	81.2	inactive	
COc1ccc(-c2nc3nnccn3c2-c2ccc(OC)cc2)cc1	Non-Toxic	Dose-dependent effect		65.5		75.2		49.6		fold change (FC) [17]: 3.015; Activity [18]: Active; inhibition [19]: inactive; inhibition [20]: Active
N#Cc1ccc(-c2cn3ccnnc3n2)cc1	Non-Toxic	Dose-dependent effect		65.4		54.2		67.1		
COc1ccc(-c2nc3nnccn3c2-c2cccc(C#N)c2)cc1	Non-Toxic	Dose-dependent effect		55.5		54.3	inactive	66.6		
COc1ccc(-c2nc3nnccn3c2-c2cccs2)cc1	Non-Toxic	Dose-dependent effect	Active	70.7		68.4		44.6	inactive	Activity [21]: Active; Activity [22]: inactive; fold change (FC) [23]: 2.955; inhibition [19]: inactive
c1ccc(-c2cn3ccnnc3n2)cc1	Non-Toxic	Dose-dependent effect	Active	72.8	inactive	62.6	inactive	77.3	Active	
COc1ccc(-c2nc3nnccn3c2-c2ccc(C)c([N+](=O)[O-])c2)cc1	Non-Toxic	Dose-dependent effect	Active	79.6		83.3		49.5	Active	Activity [21]: Active; Activity [22]: Active; fold change (FC) [23]: 2.398; inhibition [24]: Active; fold change (FC) [25]: 0.834; inhibition [19]: inactive
FC(F)(F)c1ccc(-c2cn3ccnnc3n2)cc1	Non-Toxic	Dose-dependent effect		59.1	Active	60.8	inactive	85.1		fold change (FC) [26]: 2.923; Activity [10]: Active; inhibition [16]: Active
COc1ccc(-c2nc3nnccn3c2-c2ccc(C)cc2)cc1	Non-Toxic	Dose-dependent effect		67.4		63.3		55.3		fold change (FC) [27]: 0.628; Activity [28]: Active; inhibition [29]: Active; inhibition [24]: Active; Activity [30]: Active; fold change (FC) [25]: 0.856; fold change (FC) [31]: 0.581; inhibition [19]: inactive
COc1ccc(-c2nc3nnccn3c2-c2cccc(F)c2)cc1	Non-Toxic	Dose-dependent effect		51.3		66.4		54.6		
COc1ccc(-c2nc3nnccn3c2-c2ccccc2C)cc1	Non-Toxic	Dose-dependent effect		73.8		72.4		60.7		Activity [22]: Active; inhibition [24]: Active; inhibition [19]: inactive
COc1ccc(-c2nc3nnccn3c2-c2ccc(OC(F)(F)F)cc2)cc1	Non-Toxic	Dose-dependent effect	Active	54.8	Active	66.8	inactive	78.6	Active	Activity [3]: Active; Activity [10]: Active
